Assay results: US20250092046A1, “TYROSINE KINASE INHIBITORS” (THE UNIVERSITY COURT OF THE UNIVERSITY OF EDINBURGH, priority 2021, published 2025)

What was measured:
[1] = system: MDA-MB-231 breast cancer cells; experiment: Cell viability assay (PrestoBlue); assay type: cell-based; conditions: Homo sapiens, 120 h, 5 days treatment
Experimental: (§1) Cells were grown in Dulbecco's Modified Eagle Medium (DMEM) or Roswell Park Memorial Institute (RPMI) medium supplemented with serum (10% fetal bovine serum) and L-glutamine (2 mM) and incubated in a Heracell 240i tissue culture incubator at 37° C. and 5% Co2.
(§2) After 48 hours, the media was aspirated from each well and replaced with 95 μl of fresh medium. Compounds, including DMSO, were prepared at 20× in DMEM medium in a separate 96-well intermediate plate. 5 μl from the intermediate plate was then added to each well containing cells. Untreated cells were incubated with DMSO (0.1% v/v). After 5 days, PrestoBlue™ cell viability reagent (10 μl) was added to each well and the plates incubated for 60-90 min. Fluorescence emission was detected using a fluorescence plate reader (excitation 540 nm, emission 590 nm). All conditions were normalised to the untreated cells (100%) and dose-response curves were fitted using GraphPad Prism software.

[2] = system: SRC and its family members; experiment: Kinase screening assay, selectivity across the panel; assay type: biochemical; conditions: kinase panel of Table 1, 0.5 micromolar
Experimental: (§3) A 4× Substrate/ATP/Metal (1 […], 5 mmol/L Mg^2+) solution was prepared with buffer (20 mmol/L HEPES, 0.01% Triton X-100, 5 mmol/L DTT, pH 7.5), and a 2× kinase solution was also prepared with buffer (20 mmol/L HEPES, 0.01% Triton X-100, 1 mmol/L DTT, pH 7.5). 5 μL of 4× compound solution, 5 μL of 4× Substrate/ATP/Metal solution, and 10 μL of 2× kinase solution were mixed and incubated in a well of polypropylene 384 well microplate for 1 hour at room temperature. 70 μL of Termination Buffer (QuickScout Screening Assist MSA) was added to the well. The reaction mixture was applied to LabChip™ system, and the product and substrate peptide peaks were separated and quantitated.

ABL = ABL (Homo sapiens, UniProt P00519); experiment: Kinase screening assay (mobility shift, LabChip); assay type: biochemical; conditions: 0.5 micromolar compound
Experimental: as §3

KIT = KIT (Homo sapiens, UniProt P10721); experiment: Kinase screening assay (mobility shift, LabChip); assay type: biochemical; conditions: 0.5 micromolar compound
Experimental: as §3

EGFR = EGFR (Homo sapiens, UniProt P00533); experiment: Kinase screening assay (mobility shift, LabChip); assay type: biochemical; conditions: 0.5 micromolar compound
Experimental: as §3

BRK = BRK (Homo sapiens, UniProt Q13882); experiment: Kinase screening assay (mobility shift, LabChip); assay type: biochemical; conditions: 0.5 micromolar compound
Experimental: as §3

PDGFR alpha = PDGFR alpha (Homo sapiens, UniProt P16234); experiment: Kinase screening assay (mobility shift, LabChip); assay type: biochemical; conditions: 0.5 micromolar compound
Experimental: as §3

YES = YES (Homo sapiens, UniProt P07947); experiment: Kinase screening assay (mobility shift, LabChip); assay type: biochemical; conditions: 0.5 micromolar compound
Sequence of YES (P07947 whole entry): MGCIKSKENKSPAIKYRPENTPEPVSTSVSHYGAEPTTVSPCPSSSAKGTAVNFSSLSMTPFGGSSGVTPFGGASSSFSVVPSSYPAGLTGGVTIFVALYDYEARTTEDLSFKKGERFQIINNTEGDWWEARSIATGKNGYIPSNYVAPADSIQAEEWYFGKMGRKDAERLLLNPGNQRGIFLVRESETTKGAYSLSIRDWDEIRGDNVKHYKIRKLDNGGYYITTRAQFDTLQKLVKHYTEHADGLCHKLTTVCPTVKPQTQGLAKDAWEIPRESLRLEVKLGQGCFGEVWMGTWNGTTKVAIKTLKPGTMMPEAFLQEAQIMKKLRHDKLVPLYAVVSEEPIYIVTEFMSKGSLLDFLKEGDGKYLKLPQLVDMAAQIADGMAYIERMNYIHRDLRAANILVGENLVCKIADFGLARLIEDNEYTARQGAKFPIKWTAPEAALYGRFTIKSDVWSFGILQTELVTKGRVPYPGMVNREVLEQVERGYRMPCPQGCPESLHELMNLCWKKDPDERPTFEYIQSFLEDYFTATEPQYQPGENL
Experimental: as §3

HCK = HCK (Homo sapiens, UniProt P08631); experiment: Kinase screening assay (mobility shift, LabChip); assay type: biochemical; conditions: 0.5 micromolar compound
Sequence of HCK (P08631 whole entry): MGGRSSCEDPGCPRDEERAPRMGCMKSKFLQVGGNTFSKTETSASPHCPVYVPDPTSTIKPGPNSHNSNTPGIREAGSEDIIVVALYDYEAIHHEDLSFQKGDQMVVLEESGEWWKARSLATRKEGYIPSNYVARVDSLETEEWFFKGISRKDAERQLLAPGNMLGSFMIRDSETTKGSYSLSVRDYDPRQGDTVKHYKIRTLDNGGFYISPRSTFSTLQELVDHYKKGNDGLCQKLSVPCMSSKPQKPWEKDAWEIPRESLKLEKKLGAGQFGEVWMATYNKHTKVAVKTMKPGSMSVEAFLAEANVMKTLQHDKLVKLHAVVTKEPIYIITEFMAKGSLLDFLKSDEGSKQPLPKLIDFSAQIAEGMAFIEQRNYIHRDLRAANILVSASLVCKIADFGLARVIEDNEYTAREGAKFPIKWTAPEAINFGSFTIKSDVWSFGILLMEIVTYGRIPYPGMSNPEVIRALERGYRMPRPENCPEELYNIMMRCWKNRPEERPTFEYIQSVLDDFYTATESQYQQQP
Experimental: as §3

FYNa = FYNa (Homo sapiens, UniProt P06241); experiment: Kinase screening assay (mobility shift, LabChip); assay type: biochemical; conditions: 0.5 micromolar compound
Experimental: as §3

LCK = LCK (Homo sapiens, UniProt P06239); experiment: Kinase screening assay (mobility shift, LabChip); assay type: biochemical; conditions: 0.5 micromolar compound
Sequence of LCK (P06239 whole entry): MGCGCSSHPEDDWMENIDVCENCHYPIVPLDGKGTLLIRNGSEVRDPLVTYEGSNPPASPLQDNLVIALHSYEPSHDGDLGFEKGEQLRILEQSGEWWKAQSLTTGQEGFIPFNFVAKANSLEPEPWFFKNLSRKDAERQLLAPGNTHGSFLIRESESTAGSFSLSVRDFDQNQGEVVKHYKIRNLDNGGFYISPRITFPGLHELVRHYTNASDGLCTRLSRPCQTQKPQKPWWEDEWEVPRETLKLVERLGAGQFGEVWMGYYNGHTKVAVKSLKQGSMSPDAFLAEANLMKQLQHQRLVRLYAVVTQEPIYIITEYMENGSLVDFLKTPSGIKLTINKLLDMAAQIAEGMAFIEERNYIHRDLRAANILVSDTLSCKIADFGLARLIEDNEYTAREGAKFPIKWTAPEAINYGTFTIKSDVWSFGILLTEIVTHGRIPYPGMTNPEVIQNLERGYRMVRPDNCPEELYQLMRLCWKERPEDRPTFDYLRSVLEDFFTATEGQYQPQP
Experimental: as §3

Her4 = Her4 (Homo sapiens, UniProt Q15303); experiment: Kinase screening assay (mobility shift, LabChip); assay type: biochemical; conditions: 0.5 micromolar compound
Sequence of Her4 (Q15303 26-1308): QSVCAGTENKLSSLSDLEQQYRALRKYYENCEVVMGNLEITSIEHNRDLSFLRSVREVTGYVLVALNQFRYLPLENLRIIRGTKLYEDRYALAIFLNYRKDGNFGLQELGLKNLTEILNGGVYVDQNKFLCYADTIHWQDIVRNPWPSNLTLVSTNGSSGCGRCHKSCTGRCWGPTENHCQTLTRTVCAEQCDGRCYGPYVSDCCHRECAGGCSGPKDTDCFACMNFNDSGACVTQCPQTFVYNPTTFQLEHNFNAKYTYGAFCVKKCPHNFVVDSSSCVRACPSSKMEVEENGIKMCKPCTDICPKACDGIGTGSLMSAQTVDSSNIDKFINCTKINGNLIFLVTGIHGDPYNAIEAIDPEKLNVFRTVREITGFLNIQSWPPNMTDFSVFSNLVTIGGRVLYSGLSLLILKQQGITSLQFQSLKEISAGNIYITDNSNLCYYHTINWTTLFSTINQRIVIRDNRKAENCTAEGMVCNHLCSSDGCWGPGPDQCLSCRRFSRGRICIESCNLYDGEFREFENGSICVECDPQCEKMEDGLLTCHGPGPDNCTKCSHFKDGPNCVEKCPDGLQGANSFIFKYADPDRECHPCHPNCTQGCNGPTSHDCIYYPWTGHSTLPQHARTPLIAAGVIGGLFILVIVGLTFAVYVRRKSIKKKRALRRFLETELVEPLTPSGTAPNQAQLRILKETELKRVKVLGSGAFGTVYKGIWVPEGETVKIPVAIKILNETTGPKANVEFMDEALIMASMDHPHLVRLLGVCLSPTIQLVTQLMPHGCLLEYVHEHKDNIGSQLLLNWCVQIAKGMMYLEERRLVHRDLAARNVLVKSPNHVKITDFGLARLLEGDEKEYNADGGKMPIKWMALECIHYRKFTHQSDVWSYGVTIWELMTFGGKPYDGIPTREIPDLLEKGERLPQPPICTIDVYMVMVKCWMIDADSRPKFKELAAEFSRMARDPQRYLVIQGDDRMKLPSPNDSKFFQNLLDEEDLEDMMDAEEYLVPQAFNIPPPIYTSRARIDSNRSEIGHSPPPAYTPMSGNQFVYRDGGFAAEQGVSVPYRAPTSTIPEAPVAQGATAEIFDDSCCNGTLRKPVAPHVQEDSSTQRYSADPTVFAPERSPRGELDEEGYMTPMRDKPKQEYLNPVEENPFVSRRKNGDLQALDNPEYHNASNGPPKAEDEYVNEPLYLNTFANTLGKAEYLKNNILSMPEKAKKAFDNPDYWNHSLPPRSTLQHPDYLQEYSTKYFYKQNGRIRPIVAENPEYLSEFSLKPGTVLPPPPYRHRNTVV
Experimental: as §3

RET = RET (Homo sapiens, UniProt P07949); experiment: Kinase screening assay (mobility shift, LabChip); assay type: biochemical; conditions: 0.5 micromolar compound
Sequence of RET (P07949 29-1114): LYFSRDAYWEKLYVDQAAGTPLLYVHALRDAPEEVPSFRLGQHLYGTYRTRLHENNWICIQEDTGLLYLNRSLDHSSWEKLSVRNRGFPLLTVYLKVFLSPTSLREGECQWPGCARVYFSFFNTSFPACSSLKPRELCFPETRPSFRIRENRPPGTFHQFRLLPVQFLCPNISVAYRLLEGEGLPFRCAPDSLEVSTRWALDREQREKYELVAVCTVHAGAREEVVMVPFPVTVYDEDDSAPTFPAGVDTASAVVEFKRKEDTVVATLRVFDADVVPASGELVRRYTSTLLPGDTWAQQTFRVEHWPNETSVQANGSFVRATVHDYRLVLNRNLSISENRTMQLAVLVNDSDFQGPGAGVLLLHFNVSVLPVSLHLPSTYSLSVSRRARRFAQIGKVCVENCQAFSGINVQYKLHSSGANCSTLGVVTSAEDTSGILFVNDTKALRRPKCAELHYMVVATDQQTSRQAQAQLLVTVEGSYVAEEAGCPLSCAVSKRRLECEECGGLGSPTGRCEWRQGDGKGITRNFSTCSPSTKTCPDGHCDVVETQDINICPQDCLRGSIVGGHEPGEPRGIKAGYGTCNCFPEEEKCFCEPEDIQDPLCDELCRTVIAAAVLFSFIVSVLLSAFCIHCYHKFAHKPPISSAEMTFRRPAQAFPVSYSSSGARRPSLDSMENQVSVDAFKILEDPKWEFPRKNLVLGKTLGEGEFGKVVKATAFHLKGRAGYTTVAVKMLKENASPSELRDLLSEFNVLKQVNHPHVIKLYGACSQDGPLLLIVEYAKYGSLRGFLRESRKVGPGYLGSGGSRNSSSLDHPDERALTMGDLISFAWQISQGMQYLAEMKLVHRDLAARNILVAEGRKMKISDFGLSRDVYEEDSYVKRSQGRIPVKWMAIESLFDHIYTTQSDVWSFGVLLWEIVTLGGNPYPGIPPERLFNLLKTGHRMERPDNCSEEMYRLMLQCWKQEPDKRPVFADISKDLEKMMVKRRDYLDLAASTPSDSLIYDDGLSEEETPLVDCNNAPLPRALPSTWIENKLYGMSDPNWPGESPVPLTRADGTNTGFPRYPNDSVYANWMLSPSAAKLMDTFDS
Experimental: as §3

FGR = FGR (Homo sapiens, UniProt P09769); experiment: Kinase screening assay (mobility shift, LabChip); assay type: biochemical; conditions: 0.5 micromolar compound
Sequence of FGR (P09769 whole entry): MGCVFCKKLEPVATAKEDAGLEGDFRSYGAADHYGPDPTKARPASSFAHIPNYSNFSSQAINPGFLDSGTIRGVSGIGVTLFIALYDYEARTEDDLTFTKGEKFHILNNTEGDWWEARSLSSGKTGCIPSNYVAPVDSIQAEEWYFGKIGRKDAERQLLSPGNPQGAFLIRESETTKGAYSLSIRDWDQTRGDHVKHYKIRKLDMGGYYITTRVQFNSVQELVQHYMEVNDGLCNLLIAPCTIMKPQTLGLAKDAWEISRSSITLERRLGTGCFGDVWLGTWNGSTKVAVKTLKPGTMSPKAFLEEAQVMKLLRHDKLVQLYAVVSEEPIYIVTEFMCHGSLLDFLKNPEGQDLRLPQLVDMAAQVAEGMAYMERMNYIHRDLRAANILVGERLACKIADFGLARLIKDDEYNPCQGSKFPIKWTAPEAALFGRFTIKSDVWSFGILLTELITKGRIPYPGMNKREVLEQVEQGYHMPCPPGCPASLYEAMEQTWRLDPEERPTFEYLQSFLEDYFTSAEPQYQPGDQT
Experimental: as §3

KDR = KDR (Homo sapiens, UniProt P35968); experiment: Kinase screening assay (mobility shift, LabChip); assay type: biochemical; conditions: 0.5 micromolar compound
Experimental: as §3

SRC = SRC (Homo sapiens, UniProt P12931); experiment: Kinase screening assay (mobility shift, LabChip); assay type: biochemical; conditions: 0.5 micromolar compound
Experimental: as §3

LYNa = LYNa (Homo sapiens, UniProt P07948); experiment: Kinase screening assay (mobility shift, LabChip); assay type: biochemical; conditions: 0.5 micromolar compound
Sequence of LYNa (P07948 whole entry): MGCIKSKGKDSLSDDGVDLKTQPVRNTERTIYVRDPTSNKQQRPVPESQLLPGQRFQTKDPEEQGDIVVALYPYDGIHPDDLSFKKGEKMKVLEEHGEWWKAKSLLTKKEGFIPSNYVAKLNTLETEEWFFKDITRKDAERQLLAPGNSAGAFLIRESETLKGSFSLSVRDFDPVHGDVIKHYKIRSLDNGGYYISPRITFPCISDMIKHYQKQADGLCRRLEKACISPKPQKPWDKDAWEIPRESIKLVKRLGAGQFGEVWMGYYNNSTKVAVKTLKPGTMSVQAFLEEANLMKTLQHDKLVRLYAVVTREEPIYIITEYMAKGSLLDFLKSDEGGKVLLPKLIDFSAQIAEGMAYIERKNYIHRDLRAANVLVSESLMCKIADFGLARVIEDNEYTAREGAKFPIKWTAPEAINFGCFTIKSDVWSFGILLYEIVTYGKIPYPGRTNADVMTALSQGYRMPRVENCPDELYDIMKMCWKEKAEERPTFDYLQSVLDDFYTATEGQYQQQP
Experimental: as §3

cancer cell lines = experiment: Screening in cancer cell lines (cell viability); assay type: cell-based
Experimental: as §1, §2

| GI50 [1] | selectivity for SRC and its family members over other kinases [2] | inhibition at 0.5 µM (ABL) | inhibition at 0.5 µM (KIT) | inhibition at 0.5 µM (EGFR) | inhibition at 0.5 µM (BRK) | inhibition at 0.5 µM (PDGFR alpha) | inhibition at 0.5 µM (YES) | inhibition at 0.5 µM (HCK) | inhibition at 0.5 µM (FYNa) | inhibition at 0.5 µM (LCK) | inhibition at 0.5 µM (Her4) | inhibition at 0.5 µM (RET) | inhibition at 0.5 µM (FGR) | inhibition at 0.5 µM (KDR) | inhibition at 0.5 µM (SRC) | inhibition at 0.5 µM (LYNa) | Structure (SMILES) | potency and selectivity in cancer cell lines compared with parent compound 506 (cancer cell lines) |
| --- | --- | --- | --- | --- | --- | --- | --- | --- | --- | --- | --- | --- | --- | --- | --- | --- | --- | --- |
| 12.5 nM | more selective than compound 506 | 24.2% | 2.7% | 58.2% | 99.5% | 12.2% | 102% | 98.7% | 100% | 101% | 94.9% | -2.3% | 100% | -7.3% | 97.3% | 101% | COc1cc(-c2nn(CCN3CCC(NC(C)C)CC3)c3ncnc(N)c23)ccc1NC(=O)OC(C)(C)C [Compound 8, tert-butyl (4-(4-amino-1-(2-(4-(isopropylamino)piperidin-1-yl)ethyl)-1H-pyrazolo[3,4-d]pyrimidin-3-yl)-2-methoxyphenyl)carbamate] | – |
| – | – | – | 4.4% | 46.1% | – | 13.5% | 99.7% | 101% | 100% | 104% | 96.7% | 3.8% | 100% | 2.9% | 101% | 101% | COc1cc(-c2nn(CCN3CCC(N(C)C)CC3)c3ncnc(N)c23)ccc1NC(=O)OC(C)(C)C [Compound 506, Tert-butyl (4-(4-amino-1-(2-(4-(dimethylamino)piperidin-1-yl)ethyl)-1H-pyrazolo[3,4-d]pyrimidin-3-yl)-2-methoxyphenyl)carbamate, reference compound] | – |
| 16.2 nM | more selective than compound 506 | 29.2% | 2.8% | 46.3% | 98.5% | 13.6% | 99.7% | 105% | 99.4% | 107% | 97.6% | -0.3% | 101% | 1.7% | 102% | 102% | CNC1CCN(CCn2nc(-c3ccc(NC(=O)OC(C)(C)C)c(OC)c3)c3c(N)ncnc32)CC1 [Compound 5a, tert-butyl (4-(4-amino-1-(2-(4-(methylamino)piperidin-1-yl)ethyl)-1H-pyrazolo[3,4-d]pyrimidin-3-yl)-2-methoxyphenyl)carbamate] | retains the potency and selectivity characteristics of the parent compound 506 |
